Reference: patent US9637447B2, “Lauflumide and the enantiomers thereof, method for preparing same and therapeutic uses thereof” (priority 2011, dated 2017)
Like-named read-outs stand apart in the source and are kept apart here.

Assays:
[1] = Comparative effectiveness stated in the description (no method given)
young Wistar rats [2] = test: T-maze test of waiting ability (ADHD model, impulsivity); assay type: in vivo, rat; conditions: for waiting ability in the T-maze test compared to the control: administered before the test, mazindol 1, 3, 10 mg/kg intraperitoneally, lauflumide 64, 128 mg/kg orally, D-lauflumide 64, 128, 256 mg/kg orally; for improving waiting ability, effectiveness versus methylphenidate and d-amphetamine / improving waiting ability, effectiveness versus modafinil: T-maze; for improving waiting ability, effectiveness versus methylphenidate and d-amphetamine: methylphenidate 3 mg/kg, d-amphetamine 1 mg/kg intraperitoneally; for improving waiting ability, effectiveness versus modafinil: modafinil 64 and 128 mg/kg orally
From the text: The test of waiting ability in a T-maze consists in offering a rat a choice between a quick and immediate food reward and a large but delayed reward. In adult Wistar rats, numerous antidepressants such as serotonin or noradrenalin reuptake inhibitors increase the number of choices for the large but delayed reward, indicating an improvement in waiting ability, i.e., a decrease in impulsivity.
The goal of the present study is to examine whether lauflumide in the form of its racemic mixture or its D form ((+) enantiomer), administered in 3 doses before the test, improves waiting ability in young Wistar rats subjected to the T-maze test. An improvement in waiting ability by this compound would indicate that this compound reduces impulsivity and, consequently, could be useful in the treatment of ADHD. Methylphenidate and d-amphetamine are used as a reference product in the same experiment.
Male Wistar AF rats (Centre d′Elevage Rene Janvier, France) are used, aged 22 days at the beginning of the experiment and between 30 and 42 days at the time the molecules are administered.
The experiments were carried out in two identical T-mazes (FIG. 1) made of opaque gray plastic tubes (inner diameter: 7.5 cm), consisting of a starting alley (30 cm long), a transparent plastic box, (10 cm wide, 10 cm deep and 10 cm high) and two arms (35 cm long) each leading to a rectangular black plastic box (18 cm wide, 30 cm deep, 10 cm high). The removable, gray plastic guillotine doors can be inserted in vertical slots located at the entrance to the starting alley and at the end of each arm. One of the goal boxes (left or right, depending on the rat) is continuously provided with a large reward, the other with a small reward. The large and small rewards consist of 5 and 1 pellets, respectively (20 mg, Technical & Scientific Equipment GMBH, Germany). The pellets are placed in a translucent cup before each test.
The T-maze test is a validated test which makes it possible, by extrapolation to man, to verify the effectiveness of pharmacological agents effective in ADHD.
1st phase: habituation. The animals are first subjected to 2 to 6 habituation sessions of 5 minutes each. The rat is gently placed in the starting alley, which is then closed off by a guillotine door inserted in the slot (reference c0 in FIG. 1). The animal is allowed to freely explore the device and to eat the rewards placed in the cups.
2nd phase: pre-training. A door is placed in slot c2 near each goal box and then the rat is placed in the starting alley. When it enters one of the two arms, a door is inserted behind it in slot c1 near the choice point and the door placed in slot c2 is removed. Once the animal enters the goal box, the door is replaced in slot c2. The rat is removed from the goal box as soon as it eats the pellets. The animal is then returned to its cage for 2 to 3 minutes. One to three times per day, each rat is subjected to five test sessions. In four to 12 sessions, the rat chooses the arm leading to the large reward in more than 80% of the tests. The training phase then begins.
3rd phase: training. During training the rats 1 to 4 times/day undergo sessions of 5 tests during which a delay is introduced before access to the large reward is granted. After a door is placed in slot c2 near each goal box, the rat is placed in the starting alley. When it enters one of the two arms, a second door is inserted behind it in slot c1 near the choice point, so that the rat choosing the training arm with the large reward can be held in this arm for 30 seconds—the waiting period—before having access to the reinforcement. If not, if the animal chooses the arm leading to the small reward, the door placed in slot c2 is immediately removed, allowing the animal to enter the goal box. The testing of the drugs begins when the animal chooses the large reward delayed by 30 seconds in 2 tests in 5 (or fewer) during two consecutive sessions and in 1 test in 5 (or fewer) in the following session. […]

young Wistar rats [3] = conditions: cited from earlier work; for waiting ability in the T-maze test: young rats

In the case of NC(=O)C[S+]([O-])C(c1ccc(F)cc1)c1ccc(F)cc1 (racemic) [Lauflumide], the “effectiveness relative to adrafinil” value [1] is reported as 20 times, the “effectiveness relative to modafinil” value [1] is reported as 4 times and the “waiting ability in the T-maze test compared to the control” value (young Wistar rats [2]) is reported as “improve waiting ability”.

For CC(N)Cc1ccccc1 (racemic) [amphetamine, D,L-amphetamine], the “waiting ability in the T-maze test” value (young Wistar rats [3]) is listed as “improved waiting ability”.

For NC(=O)C[S@@+]([O-])C(c1ccc(F)cc1)c1ccc(F)cc1 [D-Lauflumide], the “effectiveness versus the racemic mixture of lauflumide” value [1] was “more effective than the racemic mixture of lauflumide”, the “improving waiting ability, effectiveness versus methylphenidate and d-amphetamine” value (young Wistar rats [2]) was “at least as effective as methylphenidate and d-amphetamine” and the “improving waiting ability, effectiveness versus modafinil” value (young Wistar rats [2]) was “more effective than modafinil”. For the same compound, the “waiting ability in the T-maze test compared to the control” value (young Wistar rats [2]) was “improve waiting ability”.

With OC1(c2ccc(Cl)cc2)c2ccccc2C2=NCCN21 (centres unmarked) [Mazindol, mazindol] the “improving waiting ability, effectiveness versus methylphenidate and d-amphetamine” value (young Wistar rats [2]) was “at least as effective as methylphenidate and d-amphetamine”, the “improving waiting ability, effectiveness versus modafinil” value (young Wistar rats [2]) was “more effective than modafinil” and the “waiting ability in the T-maze test compared to the control” value (young Wistar rats [2]) was “improve waiting ability”.

For CNCC[C@@H](Oc1ccccc1C)c1ccccc1 [atomoxetine], the “waiting ability in the T-maze test” value (young Wistar rats [3]) is given as “improved waiting ability”.

For Clc1cccc(Cl)c1N=C1NCCN1 [clonidine], the “waiting ability in the T-maze test” value (young Wistar rats [3]) is listed as “improved waiting ability”.

For CNCCCN1c2ccccc2CCc2ccccc21 [desipramine], the “waiting ability in the T-maze test” value (young Wistar rats [3]) is given as “improved waiting ability”.

For COC(=O)C(c1ccccc1)C1CCCCN1 (centres unmarked) [methylphenidate], the “number of choices for the large but delayed reward” value (young Wistar rats [3]; adult Wistar rats, spontaneously hypertensive rats (SHR) and Wistar Kyoto (WKY) rats) is given as “not”, the “number of choices for the large but delayed reward” value (young Wistar rats [3]; young Wistar rats) is given as “increases the number of choices for the large but delayed reward” and the “waiting ability in the T-maze test” value (young Wistar rats [3]) is given as “improved waiting ability”.
